Assay results published in patent EP0877740B1, “THIOL DERIVATIVES WITH METALLOPEPTIDASE INHIBITORY ACTIVITY” (ZAMBON GROUP S.p.A., priority 1995, dated 1997).

Assays:
ACE = molecular target: T1, ACE (Oryctolagus cuniculus, UniProt P12822); assay: In vitro ACE-inhibitory activity (FAPGG substrate, spectrophotometric); format: biochemical; settings: ACE purified by lung rabbit, FAPGG 0.8 mM, 37°C
T1 construct: ACE (250 mU/ml purified by lung rabbit, EC 3.4.15.1 SIGMA); purchased SIGMA; host or cells: rabbit lung (tissue-purified)
T1 sequence (P12822 34-1310): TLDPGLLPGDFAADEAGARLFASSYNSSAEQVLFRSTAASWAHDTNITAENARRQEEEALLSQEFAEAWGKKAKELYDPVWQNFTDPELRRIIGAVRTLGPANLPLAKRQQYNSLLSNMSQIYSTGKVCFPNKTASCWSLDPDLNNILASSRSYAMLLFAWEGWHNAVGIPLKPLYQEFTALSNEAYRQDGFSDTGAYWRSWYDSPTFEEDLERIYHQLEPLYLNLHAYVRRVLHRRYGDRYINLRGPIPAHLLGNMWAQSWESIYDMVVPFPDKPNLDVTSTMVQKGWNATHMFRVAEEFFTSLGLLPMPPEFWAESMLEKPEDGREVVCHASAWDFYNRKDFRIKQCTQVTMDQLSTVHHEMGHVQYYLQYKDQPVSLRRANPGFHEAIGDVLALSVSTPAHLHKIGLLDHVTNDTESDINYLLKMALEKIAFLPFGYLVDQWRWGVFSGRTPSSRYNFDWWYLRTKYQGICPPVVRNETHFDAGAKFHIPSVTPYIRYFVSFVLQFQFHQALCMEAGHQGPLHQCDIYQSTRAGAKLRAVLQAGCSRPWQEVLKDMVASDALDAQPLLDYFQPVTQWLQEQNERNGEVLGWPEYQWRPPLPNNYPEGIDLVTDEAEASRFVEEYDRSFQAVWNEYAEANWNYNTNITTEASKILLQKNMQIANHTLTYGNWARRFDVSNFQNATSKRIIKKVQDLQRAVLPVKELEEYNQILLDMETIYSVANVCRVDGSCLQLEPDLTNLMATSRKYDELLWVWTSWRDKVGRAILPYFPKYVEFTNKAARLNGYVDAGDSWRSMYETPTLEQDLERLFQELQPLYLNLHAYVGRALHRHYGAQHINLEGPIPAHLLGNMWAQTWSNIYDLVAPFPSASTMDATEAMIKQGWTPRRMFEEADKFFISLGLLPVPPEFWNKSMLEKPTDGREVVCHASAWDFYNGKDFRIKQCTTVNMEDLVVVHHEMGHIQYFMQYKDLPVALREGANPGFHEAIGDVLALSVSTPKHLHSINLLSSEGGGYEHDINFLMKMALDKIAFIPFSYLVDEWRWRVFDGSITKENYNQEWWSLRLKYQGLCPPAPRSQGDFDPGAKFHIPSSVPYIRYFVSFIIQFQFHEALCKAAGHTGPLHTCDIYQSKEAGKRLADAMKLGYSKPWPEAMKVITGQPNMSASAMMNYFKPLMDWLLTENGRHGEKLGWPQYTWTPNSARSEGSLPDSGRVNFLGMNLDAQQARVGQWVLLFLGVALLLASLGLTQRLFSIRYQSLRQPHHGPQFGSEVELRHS
Method: […] of ACE (250 mU/ml purified by lung rabbit, EC 3.4.15.1 SIGMA) were preincubated with 50 µl of the compound of formula I or of the reference compound or related vehicle in thermostated cuvettes at 37°C.
The reaction was started by adding furylacryloylphenylalanylglycylglycine 0.8 mM (FAPGG-SIGMA).
Contemporaneously, by using a Beckman DU-50 spectrophotometer provided with a program for calculating delta A/minutes and regression coefficients of the enzyme kinetics curves, the absorbance at 340 nm was recorded in continuo for 5 minutes.
The percentage of the enzyme inhibition in the preparations treated with the compounds of formula I or with the comparative compounds with respect to the untreated preparations was expressed as IC50 (nM) value.

NEP = molecular target: T2, NEP (Rattus norvegicus, UniProt P07861); assay: In vitro NEP-inhibitory activity in rat kidney cortex membranes ([3H][Leu5]-enkephaline hydrolysis); format: biochemical; parameters: Kidneys were removed from male Sprague-Dawley rats weighing approximately 300 g; from tissue; host or cells: rat kidney cortex membranes (male Sprague-Dawley); settings: [3H][Leu5]-enkephaline 15 nM, 30°C
T2 sequence (P07861 1-750): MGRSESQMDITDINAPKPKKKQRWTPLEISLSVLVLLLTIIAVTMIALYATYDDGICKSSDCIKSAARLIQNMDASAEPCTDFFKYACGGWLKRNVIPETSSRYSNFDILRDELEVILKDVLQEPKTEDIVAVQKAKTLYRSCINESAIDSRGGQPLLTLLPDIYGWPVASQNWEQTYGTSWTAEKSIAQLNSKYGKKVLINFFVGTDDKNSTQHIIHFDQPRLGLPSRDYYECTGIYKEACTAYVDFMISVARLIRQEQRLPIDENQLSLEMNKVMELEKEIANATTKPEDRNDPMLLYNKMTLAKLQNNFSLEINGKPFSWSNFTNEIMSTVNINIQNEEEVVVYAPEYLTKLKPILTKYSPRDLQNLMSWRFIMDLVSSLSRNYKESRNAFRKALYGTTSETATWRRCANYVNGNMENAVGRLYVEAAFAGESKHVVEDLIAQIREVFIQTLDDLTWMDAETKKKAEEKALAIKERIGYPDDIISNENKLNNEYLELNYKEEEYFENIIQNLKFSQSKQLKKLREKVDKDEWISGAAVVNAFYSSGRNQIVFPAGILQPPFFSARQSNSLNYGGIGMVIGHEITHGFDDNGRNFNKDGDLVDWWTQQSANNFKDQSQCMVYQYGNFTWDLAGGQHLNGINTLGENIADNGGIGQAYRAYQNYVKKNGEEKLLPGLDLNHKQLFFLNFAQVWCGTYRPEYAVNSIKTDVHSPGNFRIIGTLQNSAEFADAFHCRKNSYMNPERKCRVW
Method: The NEP-inhibitory activity was evaluated in rat kidney cortex membranes prepared according to the procedure described by T. Maeda et al. in Biochim. Biophys.
Kidneys were removed from male Sprague-Dawley rats weighing approximately 300 g and kept at 4°C.
Kidney cortex was carefully dissected, finely minced and suspended in a homogenization buffer (10 mM sodium phosphate pH 7.4 containing 1 mM MgCl2, 30 mM NaCl, 0.02% NaN3) 1:15 weight/volume.
The tissue was then cold homogenized for 30 seconds using an Ultra-Turrax homogenizer.
The membranes were collected from the buffer/sucrose interface, washed twice with 50 mM TRIS/HCl buffer (pH 7.4) and resuspended into the same buffer for storage in small aliquots at -80°C until use.
The NEP-inhibitory activity was evaluated by using the method described by C.
Aliquots of the membrane suspension prepared as above described (concentration 5 µg/ml of proteins) were preincubated in the presence of an aminopeptidase inhibitor (Bestatin - 1 mM) for 10 minutes at 30°C.
Incubation (20 minutes at 30°C) was stopped by adding HCI 0.1M (100 µl).
The formation of the metabolite [^3H]Tyr-Gly-Gly was quantified by chromatography on polystyrene columns (Porapak Q).
The percentage of inhibition of the metabolite formation in the membrane preparations treated with the compounds of formula I and with the comparative compounds with respect to the untreated membrane preparations was expressed as IC50 (nM) value.

SMILES | IC50 (ACE) | IC50 (NEP) | NEP-inhibitory activity IC50 (nM) (NEP)
C[C@H](CS)C(=O)N1CCC[C@H]1C(=O)O [Captopril, reference compound] | – | – | not active
O=C(N[C@@H](Cc1ccc(-c2ccco2)cc1)C(=O)O)[C@@H](CS)Cc1ccccc1 [Compound 18, N-[(2S)-3-mercapto-2-phenylmethylpropionyl]-4-(2-furyl)-L-phenylalanine] | 1.8 nM | 1.8 nM | –
O=C(N[C@@H](Cc1ccc(-c2cncnc2)cc1)C(=O)O)[C@@H](CS)Cc1ccccc1 [Compound 19, N-[(2S)-3-mercapto-2-phenylmethylpropionyl]-4-(5-pyrimidinyl)-L-phenylalanine] | 1.9 nM | 1.8 nM | –
O=C(N[C@@H](Cc1ccc(-c2cnccn2)cc1)C(=O)O)[C@@H](CS)Cc1ccccc1 [Compound 20, N-[(2S)-3-mercapto-2-phenylmethylpropionyl]-4-(2-pyrazinyl)-L-phenylalanine] | 1.5 nM | 2.5 nM | –
O=C(N[C@@H](Cc1ccc(-c2cccnc2)cc1)C(=O)O)[C@@H](CS)Cc1ccccc1 [Compound 21, N-[(2S)-3-mercapto-2-phenylmethylpropionyl]-4-(3-pyridyl)-L-phenylalanine] | 1.7 nM | 2.6 nM | –
O=C(N[C@@H](Cc1ccc(-c2ccccn2)cc1)C(=O)O)[C@@H](CS)Cc1ccccc1 [Compound 22, N-[(2S)-3-mercapto-2-phenylmethylpropionyl]-4-(2-pyridyl)-L-phenylalanine] | 1.8 nM | 2 nM | –
O=C(N[C@@H](Cc1ccc(-c2nccs2)cc1)C(=O)O)C(CS)Cc1cccs1 (stereo partly drawn) [Compound 31, N-[3-mercapto-2-(2-thienyl)methyl-proionyl]-4-(2-thiazolyl)-L-phenylalanine] | 8.6 nM | 1.2 nM | –

Second part, the compound after the results:

IC50 (ACE) | IC50 (NEP) | NEP-inhibitory activity IC50 (nM) (NEP) | SMILES
9.1 nM | 17.3 nM | – | O=C(N[C@@H](Cc1ccc(-c2nccs2)cc1)C(=O)O)C(CS)Cc1cccnc1 (single isomer, unassigned) [Compound 27, N-[3-mercapto-2-(3-pyridylmethyl)propionyl]-4-(2-thiazolyl)-L-phenylalanine]
1.6 nM | 0.6 nM | – | O=C(N[C@@H](Cc1ccc(-c2cccs2)cc1)C(=O)O)[C@@H](CS)Cc1ccccc1 [Compound 23, N-[(2S)-3-mercapto-2-phenylmethylpropionyl]-4-(2-thienyl)-L-phenylalanine]
2.5 nM | 1.3 nM | – | O=C(N[C@@H](Cc1ccc(-c2ccsc2)cc1)C(=O)O)[C@@H](CS)Cc1ccccc1 [Compound 24, N-[(2S)-3-mercapto-2-phenylmethylpropionyl]-4-(3-thienyl)-L-phenylalanine]
2.4 nM | 1 nM | – | O=C(N[C@@H](Cc1ccc(-c2ccoc2)cc1)C(=O)O)[C@@H](CS)Cc1ccccc1 [Compound 25, N-[(2S)-3-mercapto-2-phenylmethylpropionyl]-4-(3-furyl)-L-phenylalanine]
5.8 nM | 1.8 nM | – | CC(C)CC(CS)C(=O)N[C@@H](Cc1ccc(-c2nccs2)cc1)C(=O)O (stereo partly drawn) [Compound 28, N-(2-isobutyl-3-mercapto-propionyl)-4-(2-thiazolyl)-L-phenylalanine]
4.6 nM | 9 nM | – | COc1cccc(CC(CS)C(=O)N[C@@H](Cc2ccc(-c3nccs3)cc2)C(=O)O)c1 (stereo partly drawn) [Compound 29, N-[3-mercapto-2-(3-methoxyphenyl)methyl-propionyl]-4-(2-thiazolyl)-L-phenylalanine]
10.7 nM | 11.2 nM | – | O=C(N[C@@H](Cc1ccc(-c2nccs2)cc1)C(=O)O)C(CS)Cc1ccccc1F (stereo partly drawn) [Compound 30, N-[3-mercapto-2-(2-fluorophenyl)methyl-propionyl]-4-(2-thiazolyl)-L-phenylalanine]
8.6 nM | 4 nM | – | O=C(N[C@@H](Cc1ccc(-c2nccs2)cc1)C(=O)O)C(CS)Cc1ccco1 (stereo partly drawn) [Compound 32, N-[3-mercapto-2-(2-furyl)methyl-propionyl]-4-(2-thiazolyl)-L-phenylalanine]
7.9 nM | 4.5 nM | – | Cc1cc(CC(CS)C(=O)N[C@@H](Cc2ccc(-c3nccs3)cc2)C(=O)O)on1 (stereo partly drawn) [Compound 33, N-[3-mercapto-2-(3-methyl-5-isoxazolyl)methyl-propionyl]-4-(2-thiazolyl)-L-phenylalanine]
